{"source": "patent US10854312B2", "about": "“Selective peptide antagonists” (BIONIZ, LLC, priority 2013, dated 2020)", "type_in_all_cases": "cell-based", "key": {"human IL-15": {"tested_on": "human IL-15", "experiment": "NK92 cell proliferation assay (WST-1), IL-15", "conditions": "24 h", "protocol": "(§1) Human peripheral blood mononuclear cells were purified by the Ficoll-paque gradient centrifugation (GE-Healthcare) and stimulated by PHA (5 μg ml^−1, Sigma) for 48 h, then expanded with IL-2 (0.5 nM, Peprotech) for 48h, and then depleted of non-T cells by the Pan-T cell negative enrichment Ab cocktails (Miltenyi). The purified T cells were then fasted of IL-2 overnight prior to the proliferation assay by the tetrazolium dye method. Four hundred thousand cells (in 200 μl culture) were incubated with the cytokines and BNZ132-1 at the indicated concentrations for 24 h, and 20 μl WST1 reagent (Clontech) was added to each well. After 12 h incubation, OD450 was measured. The assay was performed in triplicate. […] NK 92 cells were cultured in human IL-2. Cells were washed to withdraw IL-2 for overnight and two hundred thousand cells (in 200 μl volume) were incubated with the indicated concentrations of the cytokine and BNZ132-1 for 24 h before 20 μl WST-1 reagent (Clontech) was added to each well to measure proliferative response. Absorbance at 450 nm was read at 6 h after the addition of the WST-1 dye. The assay was performed in triplicate. The assay was performed in triplicate and the figure represents a typical result out of 5 different HAM-TSP patients.\nFIG. 8B, and FIG. 8C show the results of NK92 cell proliferation assay. NK92 cells responded to IL-2 and IL-15. […]"}, "human IL-2": {"tested_on": "human IL-2", "experiment": "CTLL-2 proliferation assay (WST-1), IL-2", "conditions": "murine CTLL-2 cells, 1 nM human IL-2, BNZ132-1 50 and 500 nM, WST-1 OD450", "protocol": "FIG. 6A-FIG. 6E presents inhibitory spectrum of BNZ132-1 over γc- and non-γc-cytokines. […] Neutralizing antibodies against each cytokine (R & D systems, 5 μg ml^−1) were included as controls. After 20 h, the cells were pulsed with WST-1 (Clontech) and OD450 of each well was measured after 6 h. A 19-mer scrambled peptide was used as a negative control at 5 μM. The experiments were conducted in triplicate (applies to all experiments in FIG. 6A-FIG. 6E). The result represents one of at least three independent experiments (applies to all experiments in FIG. 6A-FIG. 6E). […] In PT-18 proliferation assay, PT-18β or PT-18h21Rα cells were withdrawn of mouse IL-3 for 12 h before the experiment. Cells were then incubated with 1 nM of mouse IL-4, mouse IL-9, or mouse IL-21 in the presence or absence of the indicated doses (μM) of BNZ132-1. Neutralizing antibodies to each cytokine (5 μg ml^−1, except for anti-mouse IL-21 polyclonal antibody which was used at 15 μg ml−1) and a scrambled control peptide (5 μM) were included as negative controls. WST-1 assay was conducted as described above. […] In PT-18 h21Rα survival assay, PT-18h21Rα cells are described in the text. […] Both parental and hIL-21Rα positive PT-18 cells were washed and incubated without IL-3 for 12 h before the assay. […] The Y-axis represents the cpm (count per minute) values measured by a β-counter. […]"}, "human IL-9": {"tested_on": "human IL-9", "experiment": "NK92 cell proliferation assay (WST-1), IL-9", "conditions": "24 h", "protocol": "as §1"}, "human Flt-3 ligand": {"molecular_target": "human Flt-3 ligand (Homo sapiens, UniProt P49771)", "sequence (P49771 27-235)": "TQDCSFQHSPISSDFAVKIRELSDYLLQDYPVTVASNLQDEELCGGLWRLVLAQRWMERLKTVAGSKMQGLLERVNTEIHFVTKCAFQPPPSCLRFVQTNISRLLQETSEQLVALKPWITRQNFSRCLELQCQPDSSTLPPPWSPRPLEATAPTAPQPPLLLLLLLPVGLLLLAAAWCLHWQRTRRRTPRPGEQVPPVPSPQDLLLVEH", "experiment": "PT-18β proliferation assay (3H-thymidine), non-γc cytokine Flt-3 ligand", "conditions": "1 nM human Flt-3 ligand, 15 μM BNZ132-1"}, "mouse GM-CSF": {"molecular_target": "mouse GM-CSF (Mus musculus, UniProt P01587)", "sequence (P01587 18-141)": "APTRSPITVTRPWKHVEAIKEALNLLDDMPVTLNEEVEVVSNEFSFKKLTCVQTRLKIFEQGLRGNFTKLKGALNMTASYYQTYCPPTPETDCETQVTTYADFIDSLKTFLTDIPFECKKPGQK", "experiment": "PT-18β proliferation assay (3H-thymidine), non-γc cytokine GM-CSF", "conditions": "1 nM mouse GM-CSF, 15 μM BNZ132-1"}}, "note": "Entries after “also recorded” stand apart in the source; their conditions may differ. No end group written: not given here.", "data": [{"sequence": "IKEFLQRFIHIVQSIINTS [BNZ132-1]", "values": [{"measurement": "inhibition of IL-15-induced proliferation of NK92 cells", "setting": "human IL-15", "value": "dose-dependent manner; also recorded: dose-dependent inhibition"}, {"measurement": "inhibition of IL-2-induced proliferation of CTLL-2 cells", "setting": "human IL-2", "value": "inhibited IL-2 and IL-15 with an equal efficacy; also recorded: efficiently inhibits; also recorded: inhibition of IL-2 and IL-15"}, {"measurement": "inhibition of IL-9-induced proliferation of NK92 cells", "setting": "human IL-9", "value": "dose-dependent inhibition"}, {"measurement": "inhibition of Flt3-L-induced proliferation of PT-18β cells", "setting": "human Flt-3 ligand", "value": "did not inhibit; also recorded: no inhibition; also recorded: no inhibition of non-γc cytokines"}, {"measurement": "inhibition of GM-CSF-induced proliferation of PT-18β cells", "setting": "mouse GM-CSF", "value": "did not inhibit; also recorded: no inhibition; also recorded: no inhibition of non-γc cytokines"}]}]}
